Data: ChEMBL document CHEMBL1201862, “PubChem BioAssay data set” (2004)
Active and inactive are the calls of the source.

Columns and labels:
[1] = target: T1, Voltage-gated N-type calcium channel alpha-1B subunit/Amyloid beta A4 precursor protein-binding family A member 1 (Homo sapiens, UniProt Q00975+Q02410); assay type: protein assay
Bcl-2-related protein A1 [2] = target: T2, Bcl-2-related protein A1 (Mus musculus, UniProt Q07440); test: small-molecule antagonists of Bfl-1/BH3 interaction – biochemical, TR-FRET, mouse Bfl-1, confirmation (AID 621);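 note: TR-FRET binding of GST-Bfl-1 to FITC-labelled Bid peptide via terbium antibody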
T2 sequence (Q07440 whole entry): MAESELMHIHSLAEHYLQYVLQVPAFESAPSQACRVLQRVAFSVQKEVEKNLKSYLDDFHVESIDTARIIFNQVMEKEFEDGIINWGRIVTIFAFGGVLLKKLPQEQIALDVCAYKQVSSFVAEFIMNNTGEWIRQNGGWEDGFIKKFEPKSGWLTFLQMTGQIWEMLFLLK

[3] = target: Mitogen-activated protein kinase 10 (Homo sapiens, UniProt P53779); test: Dose response biochemical screening assay for inhibitors of c-Jun N-Terminal Kinase 3 (JNK3). [Related pubchem assays: 746 ]
Bcl-2-related protein A1 [4] = target: T2, Bcl-2-related protein A1; test: displacement of Bid BH3 peptide from Bfl-1 – biochemical, fluorescence polarization, FITC-Bid, mouse, primary screen (AID 432)
[5] = target: T1, Voltage-gated N-type calcium channel alpha-1B subunit/Amyloid beta A4 precursor protein-binding family A member 1; assay type: protein assay; remark: listed apart in the source
Beta-lactamase [6] = target: Beta-lactamase (Pseudomonas aeruginosa, UniProt Q79MP6);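 note: biochemical dose-response test of metallo-beta-lactamase enzyme inhibition, read out by epi-absorbance; purified recombinant IMP-1 metallo-beta-lactamase with nitrocefin as substrate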
Beta-lactamase [7] = target: Beta-lactamase (Salmonella choleraesuis (strain SC-B67), UniProt Q5J463)
[8] = target: Dual specificity protein phosphatase 6 (Rattus norvegicus, UniProt Q64346); test: inhibition of rat DUSP6 enzyme activity – biochemical, in vitro, primary screen (AID 425)
[9] = target: T3, Serine/threonine-protein phosphatase (Candida dubliniensis (strain CD36 / CBS 7987 / NCPF 3949 / NRRLY-17841) (Yeast), UniProt B9W6M3); test: blockers of CaCl2-induced CDRE-lacZ signaling – S. cerevisiae, luminescence, secondary, dose response (AID 2388); assay type: functional, cell-based;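 note: yeast reporter cells carrying a calcineurin-responsive lacZ construct stimulated with calcium chloride; luminescent beta-galactosidase reporter signal in whole cells rather than isolated phosphatase activity; potency for inhibition where a drop in reporter signal means calcineurin blockade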
T3 sequence (B9W6M3 whole entry): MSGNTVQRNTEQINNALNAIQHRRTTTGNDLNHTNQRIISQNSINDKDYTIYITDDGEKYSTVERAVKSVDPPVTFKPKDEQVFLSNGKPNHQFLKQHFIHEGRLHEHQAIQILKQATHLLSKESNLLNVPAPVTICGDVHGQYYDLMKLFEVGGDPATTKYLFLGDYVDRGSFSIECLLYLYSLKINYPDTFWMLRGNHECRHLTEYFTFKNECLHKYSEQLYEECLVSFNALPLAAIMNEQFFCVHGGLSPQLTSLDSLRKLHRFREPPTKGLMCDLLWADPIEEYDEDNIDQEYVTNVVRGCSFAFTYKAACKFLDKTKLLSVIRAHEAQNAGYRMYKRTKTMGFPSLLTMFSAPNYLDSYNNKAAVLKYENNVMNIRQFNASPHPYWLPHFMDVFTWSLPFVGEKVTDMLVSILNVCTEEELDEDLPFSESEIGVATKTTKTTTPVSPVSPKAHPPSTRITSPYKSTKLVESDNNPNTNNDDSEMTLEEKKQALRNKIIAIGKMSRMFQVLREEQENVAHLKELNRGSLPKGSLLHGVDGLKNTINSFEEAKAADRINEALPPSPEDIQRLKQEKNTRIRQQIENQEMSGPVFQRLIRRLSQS

[10] = fluconazole-exposed Candida albicans growth modulators – fluorescence, retest, confirmation (AID 2467); assay type: functional, cell-based
INS1 = test: INS-1E survival protection against cytokine death – cell-based, luminescence, retest, dose response (AID 449756); assay type: functional; details: Rattus norvegicus;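 note: cell death triggered by IL-1 beta plus TNF-alpha plus IFN-gamma mixture; protective hits raise ATP signal compared with cytokine alone wells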
Galanin receptor type 2 = Galanin receptor type 2 (Homo sapiens, UniProt O43603); test: Dose Response cell-based high-throughput screening assay to identify antagonists of galanin receptor 2 (GALR2). [Related pubchem assays: 828, 866 ]; assay type: functional
Protein Wnt-3a = Protein Wnt-3a (Mus musculus, UniProt P27467); test: antagonism of Wnt3a pathway luciferase reporter – Wnt-LIGHT cells, luminescence, selectivity assay for Gli-SUFU antagonist project, dose response (AID 651570); assay type: functional; details: read-out: IC50_Mean;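 note: Wnt-LIGHT reporter cells stimulated with conditioned medium from Wnt3a-producing cells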
[11] = target: ATP-dependent molecular chaperone HSP82 (Candida albicans (strain WO-1) (Yeast), UniProt C4YTQ8); test: steroid-induced GRE reporter decrease in yeast – S. cerevisiae, luminescence, Hsp90 inhibitor project, dose response (AID 2400); assay type: functional, cell-based;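 note: beta-galactosidase luminescence from glucocorticoid response element reporter as proxy for Hsp90 function; inhibitor potency where signal loss means Hsp90 inhibition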
[12] = NIH-3T3 fibroblast cytotoxicity, dose response, cytotoxicity control, cell-based, fluorescence, Alamar Blue, secondary assay (AID 2327); assay type: functional;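 note: NIH-3T3 mouse fibroblasts cultured with fluconazole at 8 µg/mL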
[13] = target: T4, Replicative DNA helicase DnaB (Mycobacterium tuberculosis, UniProt P9WMR3); test: DnaB intein splicing inhibitors, dose response, biochemical, cell-free fluorescence (AID 449749); assay type: functional
T4 sequence (P9WMR3 whole entry): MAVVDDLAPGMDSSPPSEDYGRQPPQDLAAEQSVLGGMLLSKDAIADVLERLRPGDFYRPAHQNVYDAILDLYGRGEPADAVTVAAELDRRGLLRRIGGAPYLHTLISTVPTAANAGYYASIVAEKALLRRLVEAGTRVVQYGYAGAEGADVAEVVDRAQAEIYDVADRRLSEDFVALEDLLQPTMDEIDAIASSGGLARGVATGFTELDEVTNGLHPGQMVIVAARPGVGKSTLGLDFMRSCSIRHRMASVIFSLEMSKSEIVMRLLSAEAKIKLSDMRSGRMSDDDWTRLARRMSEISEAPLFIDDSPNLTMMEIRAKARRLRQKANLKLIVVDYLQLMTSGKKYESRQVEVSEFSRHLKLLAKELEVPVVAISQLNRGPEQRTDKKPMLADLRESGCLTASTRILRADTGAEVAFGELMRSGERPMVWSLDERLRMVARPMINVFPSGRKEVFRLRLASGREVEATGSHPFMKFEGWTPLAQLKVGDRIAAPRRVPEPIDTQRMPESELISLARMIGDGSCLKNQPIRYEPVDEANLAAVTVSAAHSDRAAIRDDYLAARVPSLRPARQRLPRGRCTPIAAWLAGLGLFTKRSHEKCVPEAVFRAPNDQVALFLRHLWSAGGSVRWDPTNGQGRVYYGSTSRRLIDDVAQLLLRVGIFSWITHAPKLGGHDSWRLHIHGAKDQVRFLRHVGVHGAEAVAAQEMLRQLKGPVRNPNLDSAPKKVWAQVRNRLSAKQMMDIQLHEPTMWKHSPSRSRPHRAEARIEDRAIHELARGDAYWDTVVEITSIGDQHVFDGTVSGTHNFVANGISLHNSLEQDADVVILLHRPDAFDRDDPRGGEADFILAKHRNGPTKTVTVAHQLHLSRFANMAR

[14] = target: Serine/threonine-protein phosphatase PP1-alpha catalytic subunit (Homo sapiens, UniProt P62136); test: inhibition of protein phosphatase 1 activity – biochemical, fluorescence, dose response (AID 2394)
[15] = target: Serine/threonine-protein phosphatase (Homo sapiens, UniProt Q9BPW0); test: inhibition of protein phosphatase 5 activity – biochemical, fluorescence, dose response (AID 2395)
Protein RecA = target: T5, Protein RecA (Mycobacterium tuberculosis, UniProt P9WHJ3); test: Fluorescence Cell-Free Homogeneous Dose Retest to Identify Inhibitors of RecA-Intein Splicing Activity. [Related pubchem assays (depositor defined):AID2097, AID2223, AID489010, AID492950]; assay type: functional
T5 sequence (P9WHJ3 whole entry): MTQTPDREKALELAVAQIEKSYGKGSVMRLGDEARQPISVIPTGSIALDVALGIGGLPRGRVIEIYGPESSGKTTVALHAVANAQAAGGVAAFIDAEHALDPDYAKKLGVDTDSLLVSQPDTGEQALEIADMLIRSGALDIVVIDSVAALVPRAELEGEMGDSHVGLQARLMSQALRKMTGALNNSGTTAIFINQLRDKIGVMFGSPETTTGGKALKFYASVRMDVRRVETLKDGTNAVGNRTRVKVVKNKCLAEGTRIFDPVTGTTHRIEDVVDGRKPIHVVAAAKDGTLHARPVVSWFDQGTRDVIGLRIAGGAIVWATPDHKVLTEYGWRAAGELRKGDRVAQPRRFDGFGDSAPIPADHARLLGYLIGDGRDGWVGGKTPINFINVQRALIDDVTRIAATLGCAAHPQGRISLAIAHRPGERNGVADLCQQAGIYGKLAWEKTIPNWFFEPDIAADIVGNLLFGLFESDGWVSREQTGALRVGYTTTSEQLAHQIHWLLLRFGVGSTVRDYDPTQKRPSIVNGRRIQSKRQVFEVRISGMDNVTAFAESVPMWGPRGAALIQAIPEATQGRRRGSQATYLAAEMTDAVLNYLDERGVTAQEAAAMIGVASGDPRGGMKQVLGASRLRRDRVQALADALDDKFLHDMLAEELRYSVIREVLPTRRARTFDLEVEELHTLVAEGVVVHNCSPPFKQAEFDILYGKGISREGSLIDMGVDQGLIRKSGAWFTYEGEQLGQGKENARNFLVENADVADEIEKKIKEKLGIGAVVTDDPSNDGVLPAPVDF

[16] = microbe, parasite or virus in culture; assay type: functional; details: Mycobacterium tuberculosis
[17] = target: T6, Apoptotic protease-activating factor 1 (Homo sapiens, UniProt O14727); assay type: functional
T6 sequence (O14727 whole entry): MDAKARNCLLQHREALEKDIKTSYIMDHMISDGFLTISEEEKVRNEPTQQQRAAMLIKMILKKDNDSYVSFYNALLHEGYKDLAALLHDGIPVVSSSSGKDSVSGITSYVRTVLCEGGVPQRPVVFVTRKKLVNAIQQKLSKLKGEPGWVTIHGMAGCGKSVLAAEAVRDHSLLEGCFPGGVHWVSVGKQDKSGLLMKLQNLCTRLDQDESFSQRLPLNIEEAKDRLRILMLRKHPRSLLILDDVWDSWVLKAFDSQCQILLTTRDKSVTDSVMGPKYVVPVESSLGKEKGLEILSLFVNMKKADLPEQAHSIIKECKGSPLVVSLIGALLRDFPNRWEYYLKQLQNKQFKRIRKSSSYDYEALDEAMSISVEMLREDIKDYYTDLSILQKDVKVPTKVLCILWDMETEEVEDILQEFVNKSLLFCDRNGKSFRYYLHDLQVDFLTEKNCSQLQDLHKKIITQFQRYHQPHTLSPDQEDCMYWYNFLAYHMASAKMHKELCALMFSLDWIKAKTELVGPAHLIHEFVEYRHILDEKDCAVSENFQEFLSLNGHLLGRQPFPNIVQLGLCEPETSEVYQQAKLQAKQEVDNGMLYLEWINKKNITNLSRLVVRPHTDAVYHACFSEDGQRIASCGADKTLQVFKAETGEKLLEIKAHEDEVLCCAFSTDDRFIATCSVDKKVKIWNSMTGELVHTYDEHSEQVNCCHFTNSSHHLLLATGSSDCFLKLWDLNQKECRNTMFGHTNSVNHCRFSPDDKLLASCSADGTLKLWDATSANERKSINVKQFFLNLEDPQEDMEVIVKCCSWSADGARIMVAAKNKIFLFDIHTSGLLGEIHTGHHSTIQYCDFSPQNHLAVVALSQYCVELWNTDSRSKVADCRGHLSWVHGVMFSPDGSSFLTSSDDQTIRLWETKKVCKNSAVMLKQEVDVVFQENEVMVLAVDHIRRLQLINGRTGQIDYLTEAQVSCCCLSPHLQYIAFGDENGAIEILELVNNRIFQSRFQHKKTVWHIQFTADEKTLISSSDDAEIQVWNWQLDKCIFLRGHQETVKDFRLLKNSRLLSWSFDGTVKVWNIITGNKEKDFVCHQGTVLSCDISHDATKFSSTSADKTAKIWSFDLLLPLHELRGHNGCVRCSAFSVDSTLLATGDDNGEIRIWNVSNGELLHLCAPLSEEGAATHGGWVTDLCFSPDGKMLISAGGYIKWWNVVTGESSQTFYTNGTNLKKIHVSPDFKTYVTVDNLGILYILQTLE

[18] = target: T7, Tyrosyl-DNA phosphodiesterase 2 (Homo sapiens, UniProt O95551); test: potency against TDP2 phosphodiesterase activity – biochemical, epi absorbance, IC50, dose response (AID 743297)
T7 sequence (O95551 whole entry): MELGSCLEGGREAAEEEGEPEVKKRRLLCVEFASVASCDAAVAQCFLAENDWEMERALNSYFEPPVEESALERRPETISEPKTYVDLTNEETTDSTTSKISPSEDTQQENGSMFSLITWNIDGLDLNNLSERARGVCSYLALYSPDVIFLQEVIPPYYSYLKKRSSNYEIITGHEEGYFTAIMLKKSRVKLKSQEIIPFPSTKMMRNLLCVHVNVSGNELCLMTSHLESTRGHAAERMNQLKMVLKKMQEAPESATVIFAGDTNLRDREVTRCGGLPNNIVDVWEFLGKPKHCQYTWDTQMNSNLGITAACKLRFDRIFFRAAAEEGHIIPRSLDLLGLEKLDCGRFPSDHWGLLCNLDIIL

T1 sequence (Q00975 whole entry): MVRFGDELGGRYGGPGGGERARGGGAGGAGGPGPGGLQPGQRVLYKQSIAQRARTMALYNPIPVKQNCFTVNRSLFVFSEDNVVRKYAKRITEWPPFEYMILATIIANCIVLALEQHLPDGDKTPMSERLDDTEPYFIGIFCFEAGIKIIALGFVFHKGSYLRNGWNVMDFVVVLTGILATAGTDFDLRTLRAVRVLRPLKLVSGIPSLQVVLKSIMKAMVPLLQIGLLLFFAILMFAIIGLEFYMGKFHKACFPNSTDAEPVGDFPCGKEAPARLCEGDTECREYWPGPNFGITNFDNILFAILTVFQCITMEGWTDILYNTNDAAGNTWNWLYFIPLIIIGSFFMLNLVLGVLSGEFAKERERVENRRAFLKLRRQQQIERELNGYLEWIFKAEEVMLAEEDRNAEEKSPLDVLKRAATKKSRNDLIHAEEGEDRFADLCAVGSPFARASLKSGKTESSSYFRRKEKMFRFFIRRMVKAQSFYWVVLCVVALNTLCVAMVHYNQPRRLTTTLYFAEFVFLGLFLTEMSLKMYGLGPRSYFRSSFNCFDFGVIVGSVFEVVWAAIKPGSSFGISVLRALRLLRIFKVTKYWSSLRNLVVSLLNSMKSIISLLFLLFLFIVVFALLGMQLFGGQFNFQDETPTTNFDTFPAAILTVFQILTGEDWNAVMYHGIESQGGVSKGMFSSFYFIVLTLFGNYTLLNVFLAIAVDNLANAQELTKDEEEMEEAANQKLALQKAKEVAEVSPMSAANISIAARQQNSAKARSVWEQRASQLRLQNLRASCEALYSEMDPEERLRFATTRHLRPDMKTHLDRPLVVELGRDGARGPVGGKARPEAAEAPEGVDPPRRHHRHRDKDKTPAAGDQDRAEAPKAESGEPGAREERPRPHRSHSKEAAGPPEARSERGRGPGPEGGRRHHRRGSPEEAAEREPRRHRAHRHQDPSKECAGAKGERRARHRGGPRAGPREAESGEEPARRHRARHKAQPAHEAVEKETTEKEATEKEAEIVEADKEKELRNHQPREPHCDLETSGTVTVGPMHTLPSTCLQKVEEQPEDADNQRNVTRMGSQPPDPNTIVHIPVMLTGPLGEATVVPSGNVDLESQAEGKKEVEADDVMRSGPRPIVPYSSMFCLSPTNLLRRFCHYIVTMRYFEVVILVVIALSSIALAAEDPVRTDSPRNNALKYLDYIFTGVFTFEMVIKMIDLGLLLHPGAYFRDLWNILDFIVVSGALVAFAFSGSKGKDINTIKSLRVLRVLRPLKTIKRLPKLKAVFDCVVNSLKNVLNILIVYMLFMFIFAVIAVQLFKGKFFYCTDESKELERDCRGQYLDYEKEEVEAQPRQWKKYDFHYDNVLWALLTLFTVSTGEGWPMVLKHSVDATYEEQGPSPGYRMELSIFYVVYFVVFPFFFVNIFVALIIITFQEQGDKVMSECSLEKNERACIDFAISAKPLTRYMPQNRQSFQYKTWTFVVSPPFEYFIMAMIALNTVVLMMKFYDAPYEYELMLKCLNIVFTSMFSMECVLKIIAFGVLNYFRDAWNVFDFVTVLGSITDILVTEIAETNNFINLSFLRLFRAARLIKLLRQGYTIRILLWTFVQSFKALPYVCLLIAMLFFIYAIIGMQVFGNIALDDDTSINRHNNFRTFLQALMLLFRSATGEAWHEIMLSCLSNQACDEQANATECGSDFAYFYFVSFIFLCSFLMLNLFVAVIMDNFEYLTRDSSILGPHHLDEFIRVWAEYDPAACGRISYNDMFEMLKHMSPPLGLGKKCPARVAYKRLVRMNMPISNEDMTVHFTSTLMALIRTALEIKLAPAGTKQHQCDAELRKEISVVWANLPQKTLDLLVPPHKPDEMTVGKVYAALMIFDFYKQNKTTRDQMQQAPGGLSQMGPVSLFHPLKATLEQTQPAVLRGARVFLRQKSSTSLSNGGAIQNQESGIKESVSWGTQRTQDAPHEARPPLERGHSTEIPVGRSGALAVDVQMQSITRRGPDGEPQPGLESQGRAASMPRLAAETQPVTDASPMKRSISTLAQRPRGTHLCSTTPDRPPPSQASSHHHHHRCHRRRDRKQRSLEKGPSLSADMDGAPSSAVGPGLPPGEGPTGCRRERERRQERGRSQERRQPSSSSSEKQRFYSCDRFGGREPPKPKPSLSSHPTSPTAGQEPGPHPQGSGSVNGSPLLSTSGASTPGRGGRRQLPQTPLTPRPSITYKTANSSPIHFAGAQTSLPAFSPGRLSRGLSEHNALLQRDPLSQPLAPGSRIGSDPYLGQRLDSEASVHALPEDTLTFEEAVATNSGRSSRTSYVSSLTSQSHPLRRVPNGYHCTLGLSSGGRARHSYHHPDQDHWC
T1 sequence (Q02410 whole entry): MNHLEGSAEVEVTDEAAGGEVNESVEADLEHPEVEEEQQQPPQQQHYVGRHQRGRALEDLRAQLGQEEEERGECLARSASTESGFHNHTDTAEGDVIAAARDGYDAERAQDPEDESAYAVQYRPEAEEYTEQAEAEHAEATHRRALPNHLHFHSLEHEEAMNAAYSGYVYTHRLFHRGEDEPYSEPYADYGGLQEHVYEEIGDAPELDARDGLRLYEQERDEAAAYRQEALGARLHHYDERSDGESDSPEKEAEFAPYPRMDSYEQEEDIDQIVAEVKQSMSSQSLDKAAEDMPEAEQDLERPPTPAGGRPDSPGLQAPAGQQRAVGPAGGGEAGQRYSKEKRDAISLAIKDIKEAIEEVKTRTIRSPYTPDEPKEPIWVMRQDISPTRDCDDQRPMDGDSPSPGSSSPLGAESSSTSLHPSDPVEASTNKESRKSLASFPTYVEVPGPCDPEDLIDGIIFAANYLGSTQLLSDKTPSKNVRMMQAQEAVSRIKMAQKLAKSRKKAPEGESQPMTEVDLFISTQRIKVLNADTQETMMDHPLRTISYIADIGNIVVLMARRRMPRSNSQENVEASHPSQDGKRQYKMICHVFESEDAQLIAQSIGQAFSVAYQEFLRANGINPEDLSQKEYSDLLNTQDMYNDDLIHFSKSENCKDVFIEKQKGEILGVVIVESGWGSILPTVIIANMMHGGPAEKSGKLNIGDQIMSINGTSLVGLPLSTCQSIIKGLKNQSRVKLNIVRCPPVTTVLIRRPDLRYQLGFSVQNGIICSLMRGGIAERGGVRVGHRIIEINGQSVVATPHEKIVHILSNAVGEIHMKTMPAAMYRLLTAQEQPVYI
Chain of Galanin receptor type 2 (O43603 whole entry): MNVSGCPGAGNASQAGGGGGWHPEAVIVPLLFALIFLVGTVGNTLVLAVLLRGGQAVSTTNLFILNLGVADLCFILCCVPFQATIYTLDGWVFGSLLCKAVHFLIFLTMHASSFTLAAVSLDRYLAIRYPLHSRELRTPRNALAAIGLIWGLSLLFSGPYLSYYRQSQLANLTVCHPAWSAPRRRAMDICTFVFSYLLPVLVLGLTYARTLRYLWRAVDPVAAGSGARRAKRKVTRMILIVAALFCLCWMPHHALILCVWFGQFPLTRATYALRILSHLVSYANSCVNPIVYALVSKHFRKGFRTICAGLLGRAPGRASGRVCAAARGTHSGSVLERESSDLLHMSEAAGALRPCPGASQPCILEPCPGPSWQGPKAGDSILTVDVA
Chain of Serine/threonine-protein phosphatase PP1-alpha catalytic subunit (P62136 whole entry): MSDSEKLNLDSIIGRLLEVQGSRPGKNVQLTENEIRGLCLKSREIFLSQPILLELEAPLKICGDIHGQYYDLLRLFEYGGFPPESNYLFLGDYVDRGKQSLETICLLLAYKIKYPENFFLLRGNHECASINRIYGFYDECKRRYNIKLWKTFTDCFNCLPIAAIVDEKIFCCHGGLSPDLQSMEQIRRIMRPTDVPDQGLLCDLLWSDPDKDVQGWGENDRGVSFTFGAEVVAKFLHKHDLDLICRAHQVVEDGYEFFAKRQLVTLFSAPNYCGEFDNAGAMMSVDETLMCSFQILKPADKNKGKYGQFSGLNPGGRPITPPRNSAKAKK
Chain of Mitogen-activated protein kinase 10 (P53779 whole entry): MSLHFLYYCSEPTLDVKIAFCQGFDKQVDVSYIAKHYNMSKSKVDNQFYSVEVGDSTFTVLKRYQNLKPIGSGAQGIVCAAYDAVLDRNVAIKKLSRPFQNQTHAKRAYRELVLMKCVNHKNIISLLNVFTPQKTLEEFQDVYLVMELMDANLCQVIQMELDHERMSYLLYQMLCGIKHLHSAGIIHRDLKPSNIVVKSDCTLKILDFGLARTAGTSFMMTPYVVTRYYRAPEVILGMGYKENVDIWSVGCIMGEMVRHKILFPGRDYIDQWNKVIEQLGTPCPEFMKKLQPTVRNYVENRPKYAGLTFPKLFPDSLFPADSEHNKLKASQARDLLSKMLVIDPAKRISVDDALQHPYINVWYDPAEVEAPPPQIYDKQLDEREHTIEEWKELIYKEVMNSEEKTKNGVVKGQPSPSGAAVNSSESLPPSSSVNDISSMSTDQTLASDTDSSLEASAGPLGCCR
Chain of Beta-lactamase (Pseudomonas aeruginosa, UniProt Q79MP6) (Q79MP6 whole entry): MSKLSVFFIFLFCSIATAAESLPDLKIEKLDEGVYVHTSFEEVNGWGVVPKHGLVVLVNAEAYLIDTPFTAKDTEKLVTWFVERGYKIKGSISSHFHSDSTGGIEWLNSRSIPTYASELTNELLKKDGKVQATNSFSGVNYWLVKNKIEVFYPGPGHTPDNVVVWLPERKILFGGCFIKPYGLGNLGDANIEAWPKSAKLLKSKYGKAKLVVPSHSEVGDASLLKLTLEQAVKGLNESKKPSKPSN
Chain of Protein Wnt-3a (P27467 whole entry): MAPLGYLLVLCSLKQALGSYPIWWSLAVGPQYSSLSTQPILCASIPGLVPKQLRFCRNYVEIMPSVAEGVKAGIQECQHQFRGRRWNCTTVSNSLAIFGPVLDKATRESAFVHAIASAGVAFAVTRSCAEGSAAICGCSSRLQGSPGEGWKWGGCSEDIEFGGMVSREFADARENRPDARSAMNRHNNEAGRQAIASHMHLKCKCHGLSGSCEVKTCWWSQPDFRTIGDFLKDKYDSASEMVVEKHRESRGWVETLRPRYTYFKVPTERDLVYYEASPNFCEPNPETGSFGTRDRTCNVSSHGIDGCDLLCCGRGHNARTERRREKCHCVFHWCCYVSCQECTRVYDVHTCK

## O=C1c2ccccc2-c2onc3ccc(NCCCn4ccnc4)c1c23
[1]
  IC50: 3.18 µM (active)
Bcl-2-related protein A1 [2]
  IC50: > 100 µM (not active)
[3]
  IC50: 22.2 µM (not active)
Bcl-2-related protein A1 [4]
  IC50: > 100 µM (not active)
[5]
  IC50: > 50 µM (inactive)
Beta-lactamase [6]
  IC50: 5.38 µM (active)
Beta-lactamase [7]
  IC50: 3.02 µM (active)
[8]
  IC50: 1.19 µM (active)

## c1ccc2c(c1)OCC(CNc1ncnc3sccc13)O2 (configuration not stated)
[9]
  EC50: > 180 µM (inactive)
[10]
  EC50: 0.27 µM (active)
INS1
  AC50: 0.941 µM (active)
Galanin receptor type 2
  IC50: > 42 µM (not active)
Protein Wnt-3a
  IC50: 1.83 µM (active)
[11]
  EC50: > 150 µM (inactive)
[12]
  EC50: > 150 µM (inactive)

## O=C(/C=C/c1ccc(O)cc1)c1ccc(/N=C2\C(=O)c3ccccc3C(O)=C2N2CCCCC2)cc1
[13]
  AC50: > 380 µM (inactive)
[14]
  IC50: > 67 µM (not active)
[15]
  IC50: 26.4 µM (not active)
Protein RecA
  EC50: 0.707 µM (active)
[16]
  CC50: 8.74 µM (active)
[17]
  IC50: 2.91 µM (active)
[18]
  IC50: > 128 µM (inactive)
